#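 Method: 48-hour compound exposure of cells in 96-well plates, five concentrations, linear interpolation of endpoints. TGI is the concentration that stops growth completely.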
# Experiments:
# Assay in all cases: NCI-60 cell line screen, 48 h
# 786-0 renal = test system: 786-0 renal
# A498 renal = test system: A498 renal
# A549 NSCLC = test system: A549 NSCLC
# ACHN renal = test system: ACHN renal
# CAKI-1 renal = test system: CAKI-1 renal
# CCRF-CEM leukemia = test system: CCRF-CEM leukemia
# COLO 205 colon = test system: COLO 205 colon
# DLD-1 colon = test system: DLD-1 colon
# DMS 114 small cell lung = test system: DMS 114 small cell lung
# HCT-116 colon = test system: HCT-116 colon
# HCT-15 colon = test system: HCT-15 colon
# HL-60(TB) leukemia = test system: HL-60(TB) leukemia
# HOP-18 NSCLC = test system: HOP-18 NSCLC
# HOP-62 NSCLC = test system: HOP-62 NSCLC
# HOP-92 NSCLC = test system: HOP-92 NSCLC
# HT29 colon = test system: HT29 colon
# IGROV1 ovarian = test system: IGROV1 ovarian
# K-562 leukemia = test system: K-562 leukemia
# KM12 colon = test system: KM12 colon
# KM20L2 colon = test system: KM20L2 colon
# LOX IMVI melanoma = test system: LOX IMVI melanoma
# LXFL 529 NSCLC = test system: LXFL 529 NSCLC
# M14 melanoma = test system: M14 melanoma
# M19-MEL melanoma = test system: M19-MEL melanoma
# MALME-3M melanoma = test system: MALME-3M melanoma
# MOLT-4 leukemia = test system: MOLT-4 leukemia
# NCI-H226 lung = test system: NCI-H226 lung
# NCI-H23 lung = test system: NCI-H23 lung
# NCI-H460 lung = test system: NCI-H460 lung
# NCI-H522 lung = test system: NCI-H522 lung
# OVCAR-3 ovarian = test system: OVCAR-3 ovarian
# OVCAR-4 ovarian = test system: OVCAR-4 ovarian
# OVCAR-5 ovarian = test system: OVCAR-5 ovarian
# OVCAR-8 ovarian = test system: OVCAR-8 ovarian
# RPMI-8226 leukemia = test system: RPMI-8226 leukemia
# RXF-631 renal = test system: RXF-631 renal
# SF-268 CNS = test system: SF-268 CNS
# SF-295 CNS = test system: SF-295 CNS
# SF-539 CNS = test system: SF-539 CNS
# SK-MEL-2 melanoma = test system: SK-MEL-2 melanoma
# SK-MEL-28 melanoma = test system: SK-MEL-28 melanoma
# SK-MEL-5 melanoma = test system: SK-MEL-5 melanoma
# SK-OV-3 ovarian = test system: SK-OV-3 ovarian
# SN12C renal = test system: SN12C renal
# SNB-19 CNS = test system: SNB-19 CNS
# SNB-75 CNS = test system: SNB-75 CNS
# SNB-78 CNS = test system: SNB-78 CNS
# SR leukemia = test system: SR leukemia
# SW-620 colon = test system: SW-620 colon
# TK-10 renal = test system: TK-10 renal
# U251 CNS = test system: U251 CNS
# UACC-257 melanoma = test system: UACC-257 melanoma
# UACC-62 melanoma = test system: UACC-62 melanoma
# UO-31 renal = test system: UO-31 renal
# DMS 273 small cell lung = test system: DMS 273 small cell lung
# EKVX NSCLC = test system: EKVX NSCLC
# HCC-2998 colon = test system: HCC-2998 colon
# RXF 393 renal = test system: RXF 393 renal
smiles,measurement,setting,value
COc1nc(NC2OCC(OC(C)=O)C(OC(C)=O)C2OC(C)=O)c(-c2csc(N)n2)c(=O)n1C (stereo not drawn),TGI,786-0 renal,> 100 µM
same,TGI,A498 renal,> 100 µM
same,TGI,A549 NSCLC,> 100 µM
same,TGI,ACHN renal,> 100 µM
same,TGI,CAKI-1 renal,> 100 µM
same,TGI,CCRF-CEM leukemia,> 100 µM
same,TGI,COLO 205 colon,> 100 µM
same,TGI,DLD-1 colon,> 100 µM
same,TGI,DMS 114 small cell lung,> 100 µM
same,TGI,HCT-116 colon,> 100 µM
same,TGI,HCT-15 colon,> 100 µM
same,TGI,HL-60(TB) leukemia,> 100 µM
same,TGI,HOP-18 NSCLC,> 100 µM
same,TGI,HOP-62 NSCLC,> 100 µM
same,TGI,HOP-92 NSCLC,> 100 µM
same,TGI,HT29 colon,> 100 µM
same,TGI,IGROV1 ovarian,> 100 µM
same,TGI,K-562 leukemia,> 100 µM
same,TGI,KM12 colon,> 100 µM
same,TGI,KM20L2 colon,> 100 µM
same,TGI,LOX IMVI melanoma,> 100 µM
same,TGI,LXFL 529 NSCLC,> 100 µM
same,TGI,M14 melanoma,> 100 µM
same,TGI,M19-MEL melanoma,> 100 µM
same,TGI,MALME-3M melanoma,> 100 µM
same,TGI,MOLT-4 leukemia,> 100 µM
same,TGI,NCI-H226 lung,> 100 µM
same,TGI,NCI-H23 lung,> 100 µM
same,TGI,NCI-H460 lung,> 100 µM
same,TGI,NCI-H522 lung,> 100 µM
same,TGI,OVCAR-3 ovarian,> 100 µM
same,TGI,OVCAR-4 ovarian,> 100 µM
same,TGI,OVCAR-5 ovarian,> 100 µM
same,TGI,OVCAR-8 ovarian,> 100 µM
same,TGI,RPMI-8226 leukemia,> 100 µM
same,TGI,RXF-631 renal,> 100 µM
same,TGI,SF-268 CNS,> 100 µM
same,TGI,SF-295 CNS,> 100 µM
same,TGI,SF-539 CNS,> 100 µM
same,TGI,SK-MEL-2 melanoma,> 100 µM
same,TGI,SK-MEL-28 melanoma,> 100 µM
same,TGI,SK-MEL-5 melanoma,> 100 µM
same,TGI,SK-OV-3 ovarian,> 100 µM
same,TGI,SN12C renal,> 100 µM
same,TGI,SNB-19 CNS,> 100 µM
same,TGI,SNB-75 CNS,> 100 µM
same,TGI,SNB-78 CNS,> 100 µM
same,TGI,SR leukemia,> 100 µM
same,TGI,SW-620 colon,> 100 µM
same,TGI,TK-10 renal,> 100 µM
same,TGI,U251 CNS,> 100 µM
same,TGI,UACC-257 melanoma,> 100 µM
same,TGI,UACC-62 melanoma,> 100 µM
same,TGI,UO-31 renal,> 100 µM
CC1(C)C2CCC13C(=O)C1OC3(C2)C2C(=O)N(c3ccccc3)C(=O)C12 (stereo not drawn),TGI,786-0 renal,> 100 µM
same,TGI,A498 renal,> 100 µM
same,TGI,A549 NSCLC,> 100 µM
same,TGI,ACHN renal,> 100 µM
same,TGI,CAKI-1 renal,> 100 µM
same,TGI,CCRF-CEM leukemia,> 100 µM
same,TGI,COLO 205 colon,> 100 µM
same,TGI,DMS 114 small cell lung,> 100 µM
same,TGI,DMS 273 small cell lung,> 100 µM
same,TGI,EKVX NSCLC,> 100 µM
same,TGI,HCC-2998 colon,> 100 µM
same,TGI,HCT-116 colon,> 100 µM
same,TGI,HCT-15 colon,> 100 µM
same,TGI,HL-60(TB) leukemia,> 100 µM
same,TGI,HOP-18 NSCLC,> 100 µM
same,TGI,HOP-62 NSCLC,> 100 µM
same,TGI,HT29 colon,> 100 µM
same,TGI,IGROV1 ovarian,> 100 µM
same,TGI,K-562 leukemia,> 100 µM
same,TGI,KM12 colon,> 100 µM
same,TGI,KM20L2 colon,> 100 µM
same,TGI,LOX IMVI melanoma,> 100 µM
same,TGI,LXFL 529 NSCLC,> 100 µM
same,TGI,M14 melanoma,> 100 µM
same,TGI,MALME-3M melanoma,> 100 µM
same,TGI,MOLT-4 leukemia,> 100 µM
same,TGI,NCI-H226 lung,> 100 µM
same,TGI,NCI-H23 lung,> 100 µM
same,TGI,NCI-H460 lung,> 100 µM
same,TGI,NCI-H522 lung,49.1 µM
same,TGI,OVCAR-3 ovarian,> 100 µM
same,TGI,OVCAR-4 ovarian,> 100 µM
same,TGI,OVCAR-5 ovarian,> 100 µM
same,TGI,OVCAR-8 ovarian,> 100 µM
same,TGI,RPMI-8226 leukemia,> 100 µM
same,TGI,RXF 393 renal,> 100 µM
same,TGI,RXF-631 renal,> 100 µM
same,TGI,SF-268 CNS,> 100 µM
same,TGI,SF-295 CNS,> 100 µM
same,TGI,SF-539 CNS,> 100 µM
same,TGI,SK-MEL-2 melanoma,> 100 µM
same,TGI,SK-MEL-5 melanoma,> 100 µM
same,TGI,SK-OV-3 ovarian,> 100 µM
same,TGI,SN12C renal,> 100 µM
same,TGI,SNB-19 CNS,> 100 µM
same,TGI,SNB-75 CNS,> 100 µM
same,TGI,SNB-78 CNS,> 100 µM
same,TGI,SW-620 colon,> 100 µM
same,TGI,TK-10 renal,> 100 µM
same,TGI,U251 CNS,> 100 µM
same,TGI,UACC-257 melanoma,> 100 µM
same,TGI,UACC-62 melanoma,> 100 µM
same,TGI,UO-31 renal,> 100 µM
COc1ccc(C(O)c2cc(OC)c(OC)c(OC)c2)cc1 (stereo not drawn),TGI,786-0 renal,> 100 µM
same,TGI,A498 renal,> 100 µM
same,TGI,A549 NSCLC,> 100 µM
same,TGI,ACHN renal,> 100 µM
same,TGI,CAKI-1 renal,> 100 µM
same,TGI,CCRF-CEM leukemia,> 100 µM
same,TGI,COLO 205 colon,26.4 µM
same,TGI,DLD-1 colon,> 100 µM
same,TGI,DMS 114 small cell lung,37.5 µM
same,TGI,DMS 273 small cell lung,> 100 µM
same,TGI,EKVX NSCLC,> 100 µM
same,TGI,HCT-116 colon,> 100 µM
same,TGI,HCT-15 colon,> 100 µM
same,TGI,HL-60(TB) leukemia,39.5 µM
same,TGI,HOP-18 NSCLC,> 100 µM
same,TGI,HOP-62 NSCLC,> 100 µM
same,TGI,HOP-92 NSCLC,> 100 µM
same,TGI,HT29 colon,> 100 µM
same,TGI,IGROV1 ovarian,> 100 µM
same,TGI,K-562 leukemia,> 100 µM
same,TGI,KM12 colon,> 100 µM
same,TGI,LOX IMVI melanoma,> 100 µM
same,TGI,LXFL 529 NSCLC,> 100 µM
same,TGI,M14 melanoma,83.3 µM
same,TGI,M19-MEL melanoma,> 100 µM
same,TGI,MALME-3M melanoma,> 100 µM
same,TGI,MOLT-4 leukemia,> 100 µM
same,TGI,NCI-H226 lung,> 100 µM
same,TGI,NCI-H460 lung,> 100 µM
same,TGI,NCI-H522 lung,35.5 µM
same,TGI,OVCAR-3 ovarian,47 µM
same,TGI,OVCAR-4 ovarian,> 100 µM
same,TGI,OVCAR-5 ovarian,> 100 µM
same,TGI,OVCAR-8 ovarian,> 100 µM
same,TGI,RPMI-8226 leukemia,> 100 µM
same,TGI,RXF 393 renal,30.6 µM
same,TGI,RXF-631 renal,> 100 µM
same,TGI,SF-268 CNS,> 100 µM
same,TGI,SF-295 CNS,29.2 µM
same,TGI,SF-539 CNS,63.7 µM
same,TGI,SK-MEL-28 melanoma,> 100 µM
same,TGI,SK-MEL-5 melanoma,42.2 µM
same,TGI,SN12C renal,> 100 µM
same,TGI,SNB-19 CNS,> 100 µM
same,TGI,SNB-78 CNS,> 100 µM
same,TGI,SW-620 colon,> 100 µM
same,TGI,TK-10 renal,> 100 µM
same,TGI,U251 CNS,> 100 µM
same,TGI,UACC-257 melanoma,> 100 µM
same,TGI,UACC-62 melanoma,> 100 µM
same,TGI,UO-31 renal,> 100 µM

# Source: PubChem BioAssay (NCI)
